Assay results taken from patent US12679838B2, “Aromatic compound and application thereof in antitumor drug” (Shanghai Zheye Biotechnology Co., Ltd., priority 2020, dated 2026).
Like-named read-outs stand apart in the source and are kept apart here.

Tests used:
[1] = tested on: NCI-H358 tumor cells xenograft; experiment: Pharmacodynamics test of xenograft tumor model of NCI-H358 in nude mice; assay type: in vivo, Balb/c Nude mice; conditions: 100 mg/kg; for Tumor suppression ratio (%): NCI-H358 xenograft, QD×15 days, oral gavage
Procedure: Animal species and number: Balb/c Nude; 6 animals per group.
Samples for testing: compound 3-2M, compound 3-16M, TM-1, TM-3, and AMG510 (obtained by purchasing).
Test groups: blank solvent control group; compound 3-2M (100 mg/kg, QD×15 days), compound 3-16M (100 mg/kg, QD×15 days), TM-1 (100 mg/kg, QD×15 days), TM-3 (100 mg/kg, QD×15 days); and AMG510 (100 mg/kg, QD×15 days).
Animal model establishment: NCI-H358 tumor cells at logarithmic phase were cultured and collected in vitro, and inoculated subcutaneously on the right side of the back of nude mice at a quantity of 5×10^6 cells/each, and the tumor-bearing nude mice were randomly grouped when the tumor volume grew to 150-300 mm^3. Subsequently, each group of animals was administered and the day of the first administration was defined as day 1 of the test.
(§1) Administration route and frequency: oral gavage; and once a day.
(§2) General state observation: observation time and frequency: once a day; observation index or content: including, but is not limited to local administration, appearance and signs, general behavioral activities, mental status, death and other abnormal manifestations of the animals. The animals were euthanized at the end of the test.
(§3) Tumor volume calculation: V=½×long diameter× short diameter^2 (mm^3). Tumor growth inhibition ratio TGI (%) was used to evaluate the tumor suppressive efficacy of the compounds. TGI (%)=[1-(mean tumor volume at the end of administration of the treatment group−mean tumor volume at the beginning of administration of the treatment group)/(mean tumor volume at the end of administration of the control group−mean tumor volume at the beginning of administration of the control group)]×100%.

[2] = Preliminary safety test of compounds, 3-day oral gavage; conditions: mouse, in vivo, Balb/c, tentatively suggested, read-out: maximum tolerated dose
Procedure: Samples for testing: compound 3-2M and compound 3-6M.
Animal species and number: Balb/c; 3 animals per group.
(§4) Mode of administration: oral gavage.
Animal grouping and administration dose: solvent blank group and compound 3-2M group (400 mg/kg, 800 mg/kg); compound 3-6M group (400 mg/kg, 800 mg/kg).
Administration frequency: once a day, and administration for 3 days.

NCI-H358 cells = experiment: Cell proliferation inhibitory activity, NCI-H358 (CellTiter-Glo); assay type: cell-based; conditions: for cell proliferation inhibitory activity, R-configuration compared with corresponding S-configuration compound (in words): H358
Procedure: (§5) NCI-H358 cells in an exponential growth phase were digested with trypsin-EDTA and plated in a 96-well plate at 2000-3000 cells per well and incubated overnight at 37° C. with 5% CO2. A test compound was prepared as a mother liquor with DMSO, diluted with a RPMI 1640 growth medium in a concentration gradient and added to the 96-well plate and incubated for 72 hours at 37° C. in a 5% CO2 incubator. After incubation, an equal volume of CellTiter-Glo detection reagent was added to each well and incubated after shaking, and a chemiluminescence value was measured by a microplate reader, and the IC50 value for the inhibition of NCI-H358 cell proliferation was fitted and calculated by GraphPad Prism software.
The inhibitory effect of the compounds on the proliferation activity of H358 cells was tested with reference to the method of the biological test 2, and the results were as follows:
The inhibitory effect of the compounds on the proliferation activity of NCI-H358 cells was tested with reference to the method of the biological test 2, and the results were as follows.

[3] = Analysis of therapeutic safety window; conditions: in vivo, oral, 3 days
NCI-H358 = experiment: Cell proliferation inhibitory activity of NCI-H358, 3D model test (agarose colony formation); assay type: cell-based; conditions: for IC50: Homo sapiens, NCI-H358, agarose gel, colony formation, NBT staining
Procedure: 100 μl of high concentration agarose gel was spread in a 96-well plate as a bottom agarose gel layer; low concentration agarose and growth medium containing cells were mixed and spread on the bottom agarose gel layer, cooled and solidified and incubated overnight at 37° C.; a test compound was prepared into a mother liquor with DMSO, diluted with a RPMI 1640 growth medium in a concentration gradient, and the gradient diluted solution of the compound to be tested with different concentrations was added into 96 wells containing upper agarose gel cells, and solvent control wells were set and placed in a carbon dioxide incubator for culture. During the period, the drug-containing medium was changed to observe the cell growth. After the culture, the cells were stained with NBT, the number of colony formation was counted, and the IC50 value of the compound inhibiting cell proliferation was obtained.

[4] = tested on: Langendorff isolated perfused heart; experiment: In vitro isolated heart perfusion test (Langendorff); design: species or system Guinea pig; conditions: 3.3 μM
Excerpt: Test method: influences of Langendorff isolated perfused heart test compounds on electrocardiogram, wherein the test method used in this test was as follows: [table] Test compounds: compound 3-2M and the compound in Example 41 of patent WO2018217651A1 (i.e., AMG510).

[5] = tested on: MIA-paca-2 cells subcutaneous transplanted tumor; experiment: Pharmacodynamic test of CDX model in nude mice; assay type: in vivo; conditions: 10 mg/kg, QD×15 days
Procedure: Animal species and number: Balb/c Nude.
Test groups: blank solvent control group; compound 3-2M (10 mg/kg, QD×15 days), and compound 3-6M (10 mg/kg, QD×15 days).
Animal model establishment: MIA-paca-2 cells were cultured in vitro and inoculated subcutaneously on the right side of the back of nude mice, and the tumor-bearing nude mice were randomly grouped. Subsequently, each group of animals was administered and the day of the first administration was defined as day 1 of the test.
as §1
as §2, with “but” for “but is”
as §3, with “diameter×short” for “diameter× short”

hERG potassium channel = biological target: T1, hERG potassium channel (Homo sapiens, UniProt Q12809); experiment: hERG potassium channels, electrophysiological manual patch clamp; assay type: cell-based
T1 construct: expressed in transfected cells; host or cells: HEK-293
T1 sequence (Q12809 whole entry): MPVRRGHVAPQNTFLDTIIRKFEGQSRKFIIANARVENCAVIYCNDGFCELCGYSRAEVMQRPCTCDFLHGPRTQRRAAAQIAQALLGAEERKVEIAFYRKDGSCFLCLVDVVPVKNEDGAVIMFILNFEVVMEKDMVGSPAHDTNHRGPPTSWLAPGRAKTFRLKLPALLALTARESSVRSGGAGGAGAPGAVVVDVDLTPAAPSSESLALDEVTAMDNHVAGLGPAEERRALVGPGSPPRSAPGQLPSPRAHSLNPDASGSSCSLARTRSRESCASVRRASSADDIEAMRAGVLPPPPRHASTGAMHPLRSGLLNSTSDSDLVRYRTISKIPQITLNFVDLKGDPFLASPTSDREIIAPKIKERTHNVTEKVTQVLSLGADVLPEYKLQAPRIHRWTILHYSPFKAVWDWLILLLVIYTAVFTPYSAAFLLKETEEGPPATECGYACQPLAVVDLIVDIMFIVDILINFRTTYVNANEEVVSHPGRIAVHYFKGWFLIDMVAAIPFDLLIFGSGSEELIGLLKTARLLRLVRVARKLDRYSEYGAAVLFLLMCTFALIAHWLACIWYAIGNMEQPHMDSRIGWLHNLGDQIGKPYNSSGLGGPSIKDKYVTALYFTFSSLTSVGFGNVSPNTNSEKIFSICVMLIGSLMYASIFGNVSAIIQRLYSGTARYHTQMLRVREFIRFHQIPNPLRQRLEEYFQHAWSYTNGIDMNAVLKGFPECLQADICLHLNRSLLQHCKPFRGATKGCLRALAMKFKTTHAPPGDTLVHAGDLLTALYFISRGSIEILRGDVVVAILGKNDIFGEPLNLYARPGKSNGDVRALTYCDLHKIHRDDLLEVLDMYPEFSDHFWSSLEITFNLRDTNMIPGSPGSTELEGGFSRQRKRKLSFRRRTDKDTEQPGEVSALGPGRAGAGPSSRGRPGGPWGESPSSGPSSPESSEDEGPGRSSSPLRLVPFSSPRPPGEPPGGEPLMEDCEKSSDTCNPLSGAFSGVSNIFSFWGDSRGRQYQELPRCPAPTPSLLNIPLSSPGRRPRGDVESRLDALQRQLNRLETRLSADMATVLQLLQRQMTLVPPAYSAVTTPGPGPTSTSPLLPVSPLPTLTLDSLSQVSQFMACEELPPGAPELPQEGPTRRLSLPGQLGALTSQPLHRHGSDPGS
Procedure: Preparation of test solution: the solution of test compound 3-16M was subjected to conventional ultrasound and oscillation to ensure complete dissolution of the compound.
Cell culture: the cell lines were derived from HEK-293 cells which overexpressed hERG potassium channel. The cells were cultured in a 5% CO2 incubator at 37°. When a cell density reached 80% of a culture dish, the cells were pre-washed with a phosphate buffer solution (PBS), and then digested with trypsin/EDTA, and a cell culture medium was added to stop digestion. The cells were gently blown with a pipette and transferred to a centrifuge tube, centrifuged at 1000 rpm, the supernatant was poured out, and then the cell culture medium was added. The cells were gently blown and mixed evenly, then transferred to a culture dish for subculture, or the cells were dripped on a round slide and placed in a culture dish for the cells to adhere to the wall for test.
The hERG IC50 value of the compound calculated by electrophysiology manual patch clamp system test was as follows: […]

[6] = Two-week repeated dosing safety test; assay type: in vivo; conditions: SD rats, 400 mg/kg oral gavage once a day, 14 days
Procedure: Samples for testing: compound 3-29; compound 3-16M; and compound 3-32.
Animal species and number: SD rats; 6 rats per group (half male and half female).
as §4
Animal grouping and administration dose: solvent blank group and compound 3-29 group (400 mg/kg); compound 3-16M group (400 mg/kg); and compound 3-32 group (400 mg/kg).
Administration frequency: once a day, and administration for 14 days.
After administration, a toxic reaction was observed by cages for 4 hours, and detailed clinical observation was made on animals with obvious abnormal performances. General clinical observation included twice a day during the duration of test (once in the morning and once in the afternoon). Death, morbidity, respiration, secretion, faeces, diet, drinking water, and other conditions were observed and weight changes of the rats during administration were recorded. Detailed clinical observations included but were not limited to behavioral activity, skin, coat, eyes, ears, nose, abdomen, external genitals, anus, extremities, feet, and respiration. After the administration, the animals in each group were euthanized, and all the animals were dissected and observed grossly.

MIA PaCa-2 cells = experiment: Cell proliferation inhibitory activity, MIA PaCa-2 (CellTiter-Glo); assay type: cell-based
Procedure: as §5, with “MIA PaCa-2” for “NCI-H358”, “DMEM” for “RPMI 1640”

[7] = Homo sapiens, NCI-H358, 72 h, biological test 2, NCI-H358 cells, 72 hours, read-out: Cell proliferation inhibitory activity IC50 value of H358

C=CC(=O)N1CCN(c2nc(=O)n(-c3c(C)ccnc3C(C)C)c3nc(-c4ccccc4C=O)c(Cl)cc23)[C@@H](C)C1 [Compound 3-2M]
inhibition of subcutaneous transplanted tumor growth of lung cancer NCI-H358 cells in nude mice (in words) [1]: significant inhibitory effects | Tumor suppression ratio (%) [1]: ++++ (“++++” represents that the tumor suppression ratio is greater than 140%) | MTD at 3 days [2]: > 800 mg/kg | cell proliferation inhibitory activity against H358, R-configuration relative to S-configuration compound (fold) (NCI-H358 cells; 3-2M versus 3-2P): more than five times | cell proliferation inhibitory activity, R-configuration compared with corresponding S-configuration compound (in words) (NCI-H358 cells): significantly better than that of the corresponding compound 3-2P | IC50 (NCI-H358 cells; biological test 2, NCI-H358 cells, 72 hours, read-out: Cell proliferation inhibitory activity IC50 value of H358): ≤ 0.05 µM | therapeutic safety window: ratio of toxic dose to onset dose [3]: greater than 80 times | cell proliferation inhibitory activity against NCI-H358, 3D model (in words) (NCI-H358): significant cell proliferation inhibitory activities | IC50 (NCI-H358): 0.0018 µM | effect on the heart rate of the isolated heart (in words) [4]: no obvious effect on the heart rate | HR (heart rate) change % ([4]; Guinea pig isolated heart): A (“A” represents that the heart rate decreases by less than 5%) | inhibition of subcutaneous transplanted tumor growth of pancreatic cancer MIA-paca-2 cells in nude mice (in words) [5]: significant inhibition of subcutaneous transplanted tumor growth | toxicity during administration in CDX test (food and water intake, activities, weight) [5]: showed no toxicity

[2H]C(=O)c1ccccc1-c1nc2c(cc1Cl)c(N1CCN(C(=O)C=C)C[C@@H]1C)nc(=O)n2-c1c(C)ccnc1C(C)C (atropisomer, axis not shown) [Compound 3-16M]
inhibition of subcutaneous transplanted tumor growth of lung cancer NCI-H358 cells in nude mice (in words) [1]: significant inhibitory effects | Tumor suppression ratio (%) [1]: ++++ (“++++” represents that the tumor suppression ratio is greater than 140%) | cell proliferation inhibitory activity against KRAS G12C mutant cells NCI-H358 (in words) (NCI-H358 cells): significant cell proliferation inhibitory activities | IC50 (NCI-H358 cells; [7]): ≤ 0.05 µM | cell proliferation inhibitory activity against NCI-H358, 3D model (in words) (NCI-H358): significant cell proliferation inhibitory activities | IC50 (NCI-H358): 0.0011 µM | IC50 (hERG potassium channel; HEK-293 cells overexpressing hERG): > 100 µM | IC50 (hERG potassium channel; human, HEK-293 cells overexpressing hERG potassium channel, test concentration range): > 100 µM | general observation: water intake, feeding, activity, body weight [6]: no obvious abnormal performance

C=CC(=O)N1CCN(c2nc(=O)n(-c3c(C)ccnc3C(C)C)c3nc(-c4c(F)cccc4C=O)c(Cl)cc23)[C@@H](C)C1 (single isomer, unassigned) [Compound 3-6M]
cell proliferation inhibitory activity against KRAS G12C mutant cells MIA PaCa-2 (in words) (MIA PaCa-2 cells): significant cell proliferation inhibitory activities | IC50 (MIA PaCa-2 cells; Homo sapiens, MIA PaCa-2 cells, 72 hours): < 0.05 µM | MTD at 3 days [2]: > 800 mg/kg | cell proliferation inhibitory activity against KRAS G12C mutant cells NCI-H358 (in words) (NCI-H358 cells): significant cell proliferation inhibitory activities | cell proliferation inhibitory activity, R-configuration compared with corresponding S-configuration compound (in words) (NCI-H358 cells): significantly better than that of the corresponding compound 3-6P | IC50 (NCI-H358 cells; [7]): ≤ 0.05 µM | therapeutic safety window: ratio of toxic dose to onset dose [3]: greater than 80 times | inhibition of subcutaneous transplanted tumor growth of pancreatic cancer MIA-paca-2 cells in nude mice (in words) [5]: significant inhibition of subcutaneous transplanted tumor growth | toxicity during administration in CDX test (food and water intake, activities, weight) [5]: showed no toxicity

C=CC(=O)N1CCN(c2nc(=O)n(-c3c(CN(C)C)ccnc3C(C)C)c3nc(-c4ccccc4C=O)c(Cl)cc23)[C@@H](C)C1 [Compound 3-32]
cell proliferation inhibitory activity against KRAS G12C mutant cells NCI-H358 (in words) (NCI-H358 cells): significant cell proliferation inhibitory activities | IC50 (NCI-H358 cells; Homo sapiens, NCI-H358, biological test 7, NCI-H358 cells, read-out: Cell proliferation inhibitory activity IC50 value of NCI-H358): < 0.05 µM | general observation: water intake, feeding, activity, body weight [6]: no obvious abnormal performance

C=CC(=O)N1CCN(c2nc(=O)n(-c3c(CF)ccnc3C(C)C)c3nc(-c4ccccc4C=O)c(Cl)cc23)[C@@H](C)C1 [Compound 3-29]
cell proliferation inhibitory activity against KRAS G12C mutant cells NCI-H358 (in words) (NCI-H358 cells): significant cell proliferation inhibitory activities | IC50 (NCI-H358 cells; Homo sapiens, biological test 7, NCI-H358 cells, read-out: Cell proliferation inhibitory activity IC50 value of NCI-H358): < 0.05 µM | general observation: water intake, feeding, activity, body weight [6]: no obvious abnormal performance
